Laboratory results as given in patent US20230109801A1 (Blue Oak Pharmaceuticals, Inc., priority 2020, published 2023).
Structures can show the parent of a compound that is named as a salt.

Test system: mice
Experiment: SmartCube in vivo neuropharmacological behavioral assay
Conditions: for minimal effective dose: Mus musculus, ip, dose having 50% or more total activity in SmartCube, i.p., read-out: MED (minimal effective dose); for AD: antidepressant, percent probability / AG: analgesic, percent probability / AP: antipsychotic, percent probability / AX: anxiolytic, percent probability / CE: cognitive enhancer, percent probability / HA: hallucinogenic, percent probability / MS: mood stabilizer, percent probability / PS, percent probability / SD: sedative hypnotic, percent probability / SE: side effects, percent probability / UN: uncharacterized CNS activity, percent probability / XG: anxiogenic, percent probability: SmartCube, i.p. 15 min before test, at the MED
Procedure: The compounds were evaluated for their CNS related properties (e.g., the treatment, prevention or diagnosis of CNS or CNS-related disorders and/or amelioration of symptoms) using neuropharmacological screening methods described in S. L. Roberts et al., Front. Neurosci. 2011, 5:103 (hereinafter referred to as “Roberts,” the contents of which are incorporated herein by reference in their entirety).
According to Roberts, intact systems are useful in detecting improvement in disease-relevant endpoints, because psychiatric diseases generally result from disorders of cell-cell communication or circuitry. The endpoints are typically behavioral in nature, often requiring human observation and interpretation. In order to test multiple compounds for behavioral effects relevant to neurological and psychiatric diseases and disorders, PsychoGenics, Inc. (Paramus, N.J. “PGI”) developed SmartCube®, an automated system in which behaviors of compound-treated mice are captured by digital video and analyzed with computer algorithms to facilitate testing of multiple compounds for behavioral effects relevant to psychiatric disease. (D. Brunner et al., Drug Discov. Today 2002, 7:S107-S112; Alexandrov et al., Eur. J. Pharmacol. 2015, 753:127-134; the contents of each of which are incorporated herein by reference in their entirety).
The SmartCube® system is described in Example 2.2 of U.S. Pat. No. 9,758,529 and Example 289 of WIPO Publication No. WO2018/023070, the contents of each of which are incorporated herein by reference in their entirety.
According to the present disclosure, compounds identified may be evaluated using the SmartCube® system. The results of such analysis correlate certain patterns or combinations of behaviors to CNS effects along a percent probability scale of 0-100 where zero (O) reflects the limit of quantitation (LOQ).
The compounds of the present disclosure were evaluated for their CNS related properties (e.g., the treatment, prevention or diagnosis of CNS or CNS-related disorders and/or amelioration of symptoms) using neuropharmacological screening methods described in S. L. Roberts et al., Front. Neurosci. 2011, 5:103 (hereinafter referred to as “Roberts,” the contents of which are incorporated herein by reference in their entirety).
The SmartCube® system described herein was utilized to compare the behavioral signature of a test compound to a database of behavioral signatures obtained using a large set of diverse reference compounds (including but not limited to antipsychotics, anxiolytics, antidepressants and bipolar disorder medicine), thereby predicting the neuropharmacological effects of a test compound by similarity to major classes of compounds. It produces an activity signature indicating the probability that the activity of the test compound at the administered dose matches a given class of neuropharmacological agents. The test compound is simultaneously compared against multiple classes of agents; thus, a separate probability is generated for each behavioral effect measured (such as but not limited to anxiolytic activity and analgesic activity).
The compounds of the present disclosure were dissolved in a mixture of Pharmasolve™ (N-methyl-2-pyrrolidone (NMP)) and were injected i.p. 15 min. before the behavioral test. For each compound, injections were administered at different dose levels (e.g., 0.3, 1, 3, 10 and 30 mg per kg (mpk)). A compound's minimal effective dose (MED; see Table 3) is a measure of the compound's potency. The MED was defined as the dose (in mpk) having 50% or more total activity in SmartCube®. For each behavioral effect measured, results at the MED are presented. CNS activities of the compounds were recorded (see Table 2). In Table 1, a key to the percent probabilities (probability×100) for each behavioral effect (“X”) are defined provided, where LOQ is the limit of quantification.

## C1=CC2c3ccccc3C1N2C1CCCC1 [Compound 54, 11-Cyclopentyl-11-azatricyclo[6.2.1.0^2,7]undeca-2,4,6,9-tetraene hydrochloride]
  minimal effective dose: 10 to 30 mg/kg
  AD: antidepressant, percent probability: ++++ (50% ≤ X <1 00%)
  AG: analgesic, percent probability: ++ (5% ≤ X < 25%)
  AP: antipsychotic, percent probability: + (LOQ ≤ X < 5%)
  AX: anxiolytic, percent probability: ++ (5% ≤ X < 25%)
  CE: cognitive enhancer, percent probability: + (LOQ ≤ X < 5%)
  HA: hallucinogenic, percent probability: + (LOQ ≤ X < 5%)
  MS: mood stabilizer, percent probability: + (LOQ ≤ X < 5%)
  PS, percent probability: ++ (5% ≤ X < 25%)
  SD: sedative hypnotic, percent probability: + (LOQ ≤ X < 5%)
  SE: side effects, percent probability: + (LOQ ≤ X < 5%)
  UN: uncharacterized CNS activity, percent probability: ++ (5% ≤ X < 25%)
  XG: anxiogenic, percent probability: + (LOQ ≤ X < 5%)

## Cc1cccc2c1C1CCC2N1C(C)C (stereo not shown) [Compound 31, 3-Methyl-11-(propan-2-yl)-11-azatricyclo[6.2.1.0^2,7]undeca-2,4,6-triene hydrochloride]
  minimal effective dose: 10 to 30 mg/kg
  AD: antidepressant, percent probability: ++ (5% ≤ X < 25%)
  AG: analgesic, percent probability: ++ (5% ≤ X < 25%)
  AP: antipsychotic, percent probability: + (LOQ ≤ X < 5%)
  AX: anxiolytic, percent probability: ++ (5% ≤ X < 25%)
  CE: cognitive enhancer, percent probability: + (LOQ ≤ X < 5%)
  HA: hallucinogenic, percent probability: + (LOQ ≤ X < 5%)
  MS: mood stabilizer, percent probability: + (LOQ ≤ X < 5%)
  PS, percent probability: + (LOQ ≤ X < 5%)
  SD: sedative hypnotic, percent probability: ++ (5% ≤ X < 25%)
  SE: side effects, percent probability: + (LOQ ≤ X < 5%)
  UN: uncharacterized CNS activity, percent probability: +++ (25% ≤ X < 50%)
  XG: anxiogenic, percent probability: + (LOQ ≤ X < 5%)

## CC1=C(C)C2NC1c1ccccc12 [Compound 59, 9,10-Dimethyl-11-azatricyclo[6.2.1.0^2,7]undeca-2,4,6,9-tetraene hydrochloride]
  minimal effective dose: 10 to 30 mg/kg
  AD: antidepressant, percent probability: ++++ (50% ≤ X <1 00%)
  AG: analgesic, percent probability: + (LOQ ≤ X < 5%)
  AP: antipsychotic, percent probability: + (LOQ ≤ X < 5%)
  AX: anxiolytic, percent probability: ++ (5% ≤ X < 25%)
  CE: cognitive enhancer, percent probability: ++ (5% ≤ X < 25%)
  HA: hallucinogenic, percent probability: ++ (5% ≤ X < 25%)
  MS: mood stabilizer, percent probability: + (LOQ ≤ X < 5%)
  PS, percent probability: + (LOQ ≤ X < 5%)
  SD: sedative hypnotic, percent probability: + (LOQ ≤ X < 5%)
  SE: side effects, percent probability: + (LOQ ≤ X < 5%)
  UN: uncharacterized CNS activity, percent probability: + (LOQ ≤ X < 5%)
  XG: anxiogenic, percent probability: + (LOQ ≤ X < 5%)

## CC(C)C(C)N1C2CCC1c1ccccc12 (stereo not shown) [Compound 47, 11-(3-Methylbutan-2-yl)-11-azatricyclo[6.2.1.0^2,7]undeca-2,4,6-triene hydrochloride]
  minimal effective dose: 10 to 30 mg/kg
  AD: antidepressant, percent probability: ++++ (50% ≤ X <1 00%)
  AG: analgesic, percent probability: + (LOQ ≤ X < 5%)
  AP: antipsychotic, percent probability: + (LOQ ≤ X < 5%)
  AX: anxiolytic, percent probability: + (LOQ ≤ X < 5%)
  CE: cognitive enhancer, percent probability: + (LOQ ≤ X < 5%)
  HA: hallucinogenic, percent probability: + (LOQ ≤ X < 5%)
  MS: mood stabilizer, percent probability: + (LOQ ≤ X < 5%)
  PS, percent probability: + (LOQ ≤ X < 5%)
  SD: sedative hypnotic, percent probability: + (LOQ ≤ X < 5%)
  SE: side effects, percent probability: + (LOQ ≤ X < 5%)
  UN: uncharacterized CNS activity, percent probability: ++ (5% ≤ X < 25%)
  XG: anxiogenic, percent probability: + (LOQ ≤ X < 5%)

## CC1C(C)C2c3ccccc3C1N2C(C)C (stereo not shown) [Compound 49, 9,10-Dimethyl-11-(propan-2-yl)-11-azatricyclo[6.2.1.0^2,7]undeca-2,4,6-triene hydrochloride]
  minimal effective dose: 10 to 30 mg/kg

## CC(C)N1C2C=CC1c1c(Cl)cccc12 (stereo not shown) [Compound 12, 3-Chloro-11-(propan-2-yl)-11-azatricyclo[6.2.1.0^2,7]undeca-2,4,6,9-tetraene hydrochloride]
  minimal effective dose: > 30 mg/kg
  AD: antidepressant, percent probability: + (LOQ ≤ X < 5%)
  AG: analgesic, percent probability: + (LOQ ≤ X < 5%)
  AP: antipsychotic, percent probability: + (LOQ ≤ X < 5%)
  AX: anxiolytic, percent probability: +++ (25% ≤ X < 50%)
  CE: cognitive enhancer, percent probability: + (LOQ ≤ X < 5%)
  HA: hallucinogenic, percent probability: + (LOQ ≤ X < 5%)
  MS: mood stabilizer, percent probability: + (LOQ ≤ X < 5%)
  PS, percent probability: ++ (5% ≤ X < 25%)
  SD: sedative hypnotic, percent probability: + (LOQ ≤ X < 5%)
  SE: side effects, percent probability: + (LOQ ≤ X < 5%)
  UN: uncharacterized CNS activity, percent probability: + (LOQ ≤ X < 5%)
  XG: anxiogenic, percent probability: + (LOQ ≤ X < 5%)

## CC/C=C/CN1C2CCC1c1ccccc12 [Compound 10, 11-[(2E)-Pent-2-en-1-yl]-11-azatricyclo[6.2.1.0^2,7]undeca-2,4,6-triene hydrochloride]
  minimal effective dose: > 30 mg/kg
  AD: antidepressant, percent probability: + (LOQ ≤ X < 5%)
  AG: analgesic, percent probability: + (LOQ ≤ X < 5%)
  AP: antipsychotic, percent probability: + (LOQ ≤ X < 5%)
  AX: anxiolytic, percent probability: ++ (5% ≤ X < 25%)
  CE: cognitive enhancer, percent probability: + (LOQ ≤ X < 5%)
  HA: hallucinogenic, percent probability: + (LOQ ≤ X < 5%)
  MS: mood stabilizer, percent probability: + (LOQ ≤ X < 5%)
  PS, percent probability: + (LOQ ≤ X < 5%)
  SD: sedative hypnotic, percent probability: + (LOQ ≤ X < 5%)
  SE: side effects, percent probability: + (LOQ ≤ X < 5%)
  UN: uncharacterized CNS activity, percent probability: + (LOQ ≤ X < 5%)
  XG: anxiogenic, percent probability: + (LOQ ≤ X < 5%)

## CC(C)N1C2CCC1c1cc(Cl)ccc12 (stereo not shown) [Compound 28, 4-Chloro-11-(propan-2-yl)-11-azatricyclo[6.2.1.0^2,7]undeca-2,4,6-triene hydrochloride]
  minimal effective dose: > 30 mg/kg
  AD: antidepressant, percent probability: +++ (25% ≤ X < 50%)
  AG: analgesic, percent probability: + (LOQ ≤ X < 5%)
  AP: antipsychotic, percent probability: + (LOQ ≤ X < 5%)
  AX: anxiolytic, percent probability: ++ (5% ≤ X < 25%)
  CE: cognitive enhancer, percent probability: + (LOQ ≤ X < 5%)
  HA: hallucinogenic, percent probability: + (LOQ ≤ X < 5%)
  MS: mood stabilizer, percent probability: + (LOQ ≤ X < 5%)
  PS, percent probability: + (LOQ ≤ X < 5%)
  SD: sedative hypnotic, percent probability: + (LOQ ≤ X < 5%)
  SE: side effects, percent probability: ++ (5% ≤ X < 25%)
  UN: uncharacterized CNS activity, percent probability: ++ (5% ≤ X < 25%)
  XG: anxiogenic, percent probability: + (LOQ ≤ X < 5%)

## Clc1cccc2c1C1CCC2N1 (stereo not shown) [Compound 13, 3-Chloro-11-azatricyclo[6.2.1.0^2,7]undeca-2,4,6-triene hydrochloride]
  minimal effective dose: > 30 mg/kg
  AD: antidepressant, percent probability: + (LOQ ≤ X < 5%)
  AG: analgesic, percent probability: + (LOQ ≤ X < 5%)
  AP: antipsychotic, percent probability: + (LOQ ≤ X < 5%)
  AX: anxiolytic, percent probability: ++ (5% ≤ X < 25%)
  CE: cognitive enhancer, percent probability: ++ (5% ≤ X < 25%)
  HA: hallucinogenic, percent probability: + (LOQ ≤ X < 5%)
  MS: mood stabilizer, percent probability: + (LOQ ≤ X < 5%)
  PS, percent probability: + (LOQ ≤ X < 5%)
  SD: sedative hypnotic, percent probability: + (LOQ ≤ X < 5%)
  SE: side effects, percent probability: + (LOQ ≤ X < 5%)
  UN: uncharacterized CNS activity, percent probability: +++ (25% ≤ X < 50%)
  XG: anxiogenic, percent probability: + (LOQ ≤ X < 5%)

## C1=CC2c3ccccc3C1N2C1CC1 [Compound 56, 11-Cyclopropyl-11-azatricyclo[6.2.1.0^2,7]undeca-2,4,6,9-tetraene hydrochloride]
  minimal effective dose: 10 to 30 mg/kg
  AD: antidepressant, percent probability: ++ (5% ≤ X < 25%)
  AG: analgesic, percent probability: + (LOQ ≤ X < 5%)
  AP: antipsychotic, percent probability: ++ (5% ≤ X < 25%)
  AX: anxiolytic, percent probability: ++ (5% ≤ X < 25%)
  CE: cognitive enhancer, percent probability: ++ (5% ≤ X < 25%)
  HA: hallucinogenic, percent probability: + (LOQ ≤ X < 5%)
  MS: mood stabilizer, percent probability: + (LOQ ≤ X < 5%)
  PS, percent probability: + (LOQ ≤ X < 5%)
  SD: sedative hypnotic, percent probability: + (LOQ ≤ X < 5%)
  SE: side effects, percent probability: + (LOQ ≤ X < 5%)
  UN: uncharacterized CNS activity, percent probability: +++ (25% ≤ X < 50%)
  XG: anxiogenic, percent probability: + (LOQ ≤ X < 5%)
